Columns and labels:
human Factor XIa = human Factor XIa (Homo sapiens (Human), UniProt P03951); assay: Factor XIa Assay (fluorogenic substrate GPR-AFC); format: biochemical; conditions: Factor XIa (FXIa)
Protocol: (§1) The effectiveness of a compound of the present invention as an inhibitor of Coagulation Factor XIa can be determined using a relevant purified serine protease, and an appropriate synthetic substrate. The rate of hydrolysis of the chromogenic or fluorogenic substrate by the relevant serine protease was measured both in the absence and presence of compounds of the present invention. Assays were conducted at room temperature or at 37° C. […] A decrease in the rate of fluorescence change in the presence of inhibitor is indicative of enzyme inhibition. Such methods are known to one skilled in the art. The results of this assay are expressed as the half-maximal inhibitory concentrations (IC50), or the inhibitory constant, Ki.
Compounds were pre-incubated for 30 minutes at 25° C. with human (0.04 nM) Factor XIa in 50 mM HEPES buffer with 150 mM sodium chloride, 5 mM calcium chloride, 0.1% PEG 8000, pH 7.4. […] The % inhibition for each data point was calculated from the data and analyzed using the log (inhibitor) vs. response four parameters equation to determine the half-maximal inhibitory concentrations (IC50). The IC50 were converted to equilibrium inhibitory constants (Ki) using the Cheng-Prusoff equation.

Human plasma kallikrein = Human plasma kallikrein (Homo sapiens (Human), UniProt P03952); assay: Kallikrein Assay (fluorogenic substrate Acetyl-K-P-R-AFC); format: biochemical; conditions: Plasma Kallikrein (PKal)
Sequence of Human plasma kallikrein (P03952 391-638): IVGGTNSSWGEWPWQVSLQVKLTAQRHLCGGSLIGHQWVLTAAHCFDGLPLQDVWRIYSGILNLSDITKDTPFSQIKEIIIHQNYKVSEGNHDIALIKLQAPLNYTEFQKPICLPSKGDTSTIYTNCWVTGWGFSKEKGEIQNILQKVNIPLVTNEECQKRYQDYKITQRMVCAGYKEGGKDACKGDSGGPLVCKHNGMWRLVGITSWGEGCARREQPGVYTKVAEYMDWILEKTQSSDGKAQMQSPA
Sequence of Human plasma kallikrein (P03952 20-390 partner): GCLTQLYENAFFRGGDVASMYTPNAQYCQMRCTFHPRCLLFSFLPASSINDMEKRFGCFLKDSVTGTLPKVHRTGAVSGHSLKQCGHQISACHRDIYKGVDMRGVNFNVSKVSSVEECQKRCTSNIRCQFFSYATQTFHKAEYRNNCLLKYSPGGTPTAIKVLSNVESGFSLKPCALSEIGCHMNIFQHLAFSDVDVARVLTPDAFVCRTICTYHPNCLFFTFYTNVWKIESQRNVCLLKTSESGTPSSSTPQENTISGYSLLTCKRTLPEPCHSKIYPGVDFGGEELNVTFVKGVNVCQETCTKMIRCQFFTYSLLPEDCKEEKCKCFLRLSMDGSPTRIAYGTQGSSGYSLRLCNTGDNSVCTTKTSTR
Protocol: as §1, with “Kallikrein” for “Coagulation Factor XIa”
Kallikrein determinations were made in 50 mM HEPES buffer at pH 7.4 containing 150 mM NaCl, 5 mM CaC12, and 0.1% PEG 8000 (polyethylene glycol; Fisher Scientific). Determinations were made using purified Human plasma kallikrein at a final concentration of 0.5 nM (Enzyme Research Laboratories) and the synthetic substrate, Acetyl-K-P-R-AFC (Sigma # C6608) at a concentration of […].
Times required to achieve equilibration between enzyme and inhibitor were determined in control experiments. […] IC50 was determined by inflection point from a four parameter logistic curve fit. Ki was calculated using the Cheng Prusoff equation, Ki = IC50/(1+([S]/Km)).

Sequence of human Factor XIa (P03951 388-625 limits assumed): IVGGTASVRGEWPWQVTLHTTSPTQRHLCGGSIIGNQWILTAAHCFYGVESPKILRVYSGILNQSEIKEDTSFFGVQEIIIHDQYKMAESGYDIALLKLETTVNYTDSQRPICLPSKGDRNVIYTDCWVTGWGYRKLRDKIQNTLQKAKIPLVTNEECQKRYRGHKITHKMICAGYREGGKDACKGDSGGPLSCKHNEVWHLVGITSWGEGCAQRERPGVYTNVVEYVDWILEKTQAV
Sequence of human Factor XIa (P03951 19-387 partner limits assumed): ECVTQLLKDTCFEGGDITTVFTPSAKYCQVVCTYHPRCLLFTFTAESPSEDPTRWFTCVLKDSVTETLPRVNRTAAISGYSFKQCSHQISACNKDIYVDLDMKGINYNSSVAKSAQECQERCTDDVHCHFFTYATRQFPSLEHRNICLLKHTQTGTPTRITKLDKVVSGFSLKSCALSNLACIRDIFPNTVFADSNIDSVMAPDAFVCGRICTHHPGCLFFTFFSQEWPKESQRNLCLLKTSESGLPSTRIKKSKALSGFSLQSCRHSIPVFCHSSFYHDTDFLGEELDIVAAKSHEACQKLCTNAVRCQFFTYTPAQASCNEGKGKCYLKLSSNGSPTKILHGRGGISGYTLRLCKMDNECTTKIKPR

| Compound | IC50 (human Factor XIa) | IC50 (Human plasma kallikrein) |
| --- | --- | --- |
| 6-(3-Chloro-2-fluoro-6-(methylsulfonyl)phenyl)-N-(1-((S or R)-1-(4-methyl-2-((1R,SS)-2-oxo-3-azabicyclo[3.1.0]hexan-3-yl)pyrimidin-5-yl)ethyl)- 1H-pyrazol-4-yl)pyrazine-2-carboxamide [Example 86] | > 10000 nM | 36 nM |
| Cc1nc(C(C)n2cc(NC(=O)c3nc(-c4c(C(F)F)ccc(Cl)c4F)cnc3COC(C)(C)C)cn2)cnc1N1C[C@H]2C[C@H]2C1=O (mixture of isomers) [Example 196, 3-(tert-Butoxymethyl)-6-(3-chloro-6-(difluoromethyl)-2-fluorophenyl)-N-(1-((S and R)-1-(6-methyl-5-((1R,5S)-2-oxo-3-azabicyclo[3.1.0]hexan-3-yl)pyrazin-2-yl)ethyl)-1H-pyrazol-4-yl)pyrazine-2-carboxamide] | 2090 nM | 0.9 nM |
| Cc1cc(C(C)n2cc(NC(=O)c3nc(-c4c(OC(F)F)ccc(Cl)c4F)cnc3COC(C)(C)C)cn2)cnc1N1C[C@H]2C[C@H]2C1=O (mixture of isomers) [Example 228, 3-(tert-Butoxymethyl)-6-(3-chloro-6-(difluoromethoxy)-2-fluorophenyl)-N-(1-((R and S)-1-(5-methyl-6-((1R,5S)-2-oxo-3-azabicyclo[3.1.0]hexan-3-yl)pyridin-3-yl)ethyl)-1H-pyrazol-4-yl)pyrazine-2-carboxamide] | 602 nM | 1.6 nM |
| Cc1nc(C(C)n2cc(NC(=O)c3cncc(-c4c(C(F)F)ccc(Cl)c4F)n3)cn2)ncc1N1C[C@H]2C[C@H]2C1=O (single isomer, unassigned) [Example 3, 6-(3-Chloro-6-(difluoromethyl)-2-fluorophenyl)-N-(1-((S or R)-1-(4-methyl-5-((1R,5S)-2-oxo-3-azabicyclo[3.1.0]hexan-3-yl)pyrimidin-2-yl)ethyl)-1H-pyrazol-4-yl)pyrazine-2-carboxamide] | > 10000 nM | 1 nM |
| Cc1nc(C(C)n2cc(NC(=O)c3cncc(-c4c(C(F)F)ccc(Cl)c4F)n3)cn2)ncc1N1C[C@H]2C[C@H]2C1=O (single isomer, unassigned) [Example 4, 6-(3-Chloro-6-(difluoromethyl)-2-fluorophenyl)-N-(1-((R or S)-1-(4-methyl-5-((1R,5S)-2-oxo-3-azabicyclo[3.1.0]hexan-3-yl)pyrimidin-2-yl)ethyl)-1H-pyrazol-4-yl)pyrazine-2-carboxamide] | > 10000 nM | 16.8 nM |
| CC(c1ncc(N2C[C@H]3C[C@H]3C2=O)cn1)n1cc(NC(=O)c2cncc(-c3c(C(F)F)ccc(Cl)c3F)n2)cn1 (single isomer, unassigned) [Example 5, 6-(3-Chloro-6-(difluoromethyl)-2-fluorophenyl)-N-(1-((S or R)-1-(5-((1R,5S)-2-oxo-3-azabicyclo[3.1.0]hexan-3-yl)pyrimidin-2-yl)ethyl)-1H-pyrazol-4-yl)pyrazine-2-carboxamide] | > 10000 nM | 17.2 nM |
| Cc1ncc(-c2c(C(F)F)ccc(Cl)c2F)nc1C(=O)Nc1cnn(C(C)c2ncc(N3C[C@H]4C[C@H]4C3=O)cn2)c1 (single isomer, unassigned) [Example 6, 6-(3-Chloro-6-(difluoromethyl)-2-fluorophenyl)-3-methyl-N-(1-((R or S)-1-(5-((1R,5S)-2-oxo-3-azabicyclo[3.1.0]hexan-3-yl)pyrimidin-2-yl)ethyl)-1H-pyrazol-4-yl)pyrazine-2-carboxamide] | > 10000 nM | 0.9 nM |
| CC(c1ccc(N2CC3CC3C2=O)nc1)n1cc(NC(=O)c2cncc(-c3c(C(F)F)ccc(Cl)c3F)n2)cn1 (single isomer, unassigned) [Example 10, 6-(3-Chloro-6-(difluoromethyl)-2-fluorophenyl)-N-(1-((S or R)-1-(6-((1R,5S or 1S,5R)-2-oxo-3-azabicyclo[3.1.0]hexan-3-yl)pyridin-3-yl)ethyl)-1H-pyrazol-4-yl)pyrazine-2-carboxamide] | > 10000 nM | 16.8 nM |
| CC(c1ccc(N2CC3CC3C2=O)nc1)n1cc(NC(=O)c2cncc(-c3c(C(F)F)ccc(Cl)c3F)n2)cn1 (single isomer, unassigned) [Example 11, 6-(3-Chloro-6-(difluoromethyl)-2-fluorophenyl)-N-(1-((R or S)-1-(6-((1R,5S or 1S,5R)-2-oxo-3-azabicyclo[3.1.0]hexan-3-yl)pyridin-3-yl)ethyl)-1H-pyrazol-4-yl)pyrazine-2-carboxamide] | > 10000 nM | 17.2 nM |

Further lines, results first:

| IC50 (human Factor XIa) | IC50 (Human plasma kallikrein) | Compound |
| --- | --- | --- |
| > 10000 nM | 6.2 nM | CC(c1cnc(N2Cc3cccnc3C2=O)nc1)n1cc(NC(=O)c2cncc(-c3c(C(F)F)ccc(Cl)c3F)n2)cn1 (racemic) [Example 26, (S and R)-6-(3-Chloro-6-(difluoromethyl)-2-fluorophenyl)-N-(1-(1-(2-(7-oxo-5,7-dihydro-6H-pyrrolo[3,4-b]pyridin-6-yl)pyrimidin-5-yl)ethyl)-1H-pyrazol-4-yl)pyrazine-2-carboxamide] |
| 5650 nM | 14.8 nM | CC(c1cnc(N2Cc3ncccc3C2=O)nc1)n1cc(NC(=O)c2cncc(-c3c(C(F)F)ccc(Cl)c3F)n2)cn1 (racemic) [Example 27, (S and R)-6-(3-Chloro-6-(difluoromethyl)-2-fluorophenyl)-N(1-(1-(2-(5-oxo-5,7-dihydro-6H-pyrrolo[3,4-b]pyridin-6-yl)pyrimidin-5-yl)ethyl)-1H-pyrazol-4-yl)pyrazine-2-carboxamide] |
| > 10000 nM | 47.4 nM | CC(c1cnc(N2CCN(C)C2=O)nc1)n1cc(NC(=O)c2cncc(-c3c(C(F)F)ccc(Cl)c3F)n2)cn1 (racemic) [Example 28, (S and R)-6-(3-Chloro-6-(difluoromethyl)-2-fluorophenyl)-N-(1-(1-(2-(3-methyl-2-oxoimidazolidin-1-yl)pyrimidin-5-yl)ethyl)-1H-pyrazol-4-yl)pyrazine-2-carboxamide] |
| > 10000 nM | 10 nM | CC(c1ccc(N2C[C@H]3C[C@H]3C2=O)cc1)n1cc(NC(=O)c2cncc(-c3c(C(F)F)ccc(Cl)c3F)n2)cn1 (mixture of isomers) [Example 69, 6-(3-Chloro-6-(difluoromethyl)-2-fluorophenyl)-N-(1-((S and R)-1-(4-((1R,5S)-2-oxo-3-azabicyclo[3.1.0]hexan-3-yl)phenyl)ethyl)-1H-pyrazol-4-yl)pyrazine-2-carboxamide] |
| 3950 nM | 10.8 nM | Cc1ncc(-c2c(C(F)F)ccc(Cl)c2F)nc1C(=O)Nc1cnn(C(C)c2cnc(N3C[C@H]4C[C@H]4C3=O)c(NC(=O)OC(C)(C)C)c2)c1 (mixture of isomers) [Example 96, tert-Butyl (5-((S and R)-1-(4-(6-(3-chloro-6-(difluoromethyl)-2-fluorophenyl)-3-methylpyrazine-2-carboxamido)-1H-pyrazol-1-yl)ethyl)-2-((1R,5S)-2-oxo-3-azabicyclo[3.1.0]hexan-3-yl)pyridin-3-yl)carbamate] |
| 944 nM | 1.2 nM | CCc1ncc(-c2c(C(F)F)ccc(Cl)c2F)nc1C(=O)Nc1cnn(C(C)c2cnc(N3C[C@H]4C[C@H]4C3=O)c(C)c2)c1 (mixture of isomers) [Example 214, 6-(3-Chloro-6-(difluoromethyl)-2-fluorophenyl)-3-ethyl-N-(1-((S and R)-1-(5-methyl-6-((1R,5S)-2-oxo-3-azabicyclo[3.1.0]hexan-3-yl)pyridin-3-yl)ethyl)-1H-pyrazol-4-yl)pyrazine-2-carboxamide] |
| – | 0.2 nM | Cc1cc(C(C)n2cc(NC(=O)c3nc(-c4c(C(F)F)ccc(Cl)c4F)cnc3CO)cn2)cnc1N1C[C@H]2C[C@H]2C1=O (single isomer, unassigned) [Example 199, 6-(3-Chloro-6-(difluoromethyl)-2-fluorophenyl)-3-(hydroxymethyl)-N-(1-((S or R)-1-(5-methyl-6-((1R,5S)-2-oxo-3-azabicyclo[3.1.0]hexan-3-yl)pyridin-3-yl)ethyl)-1H-pyrazol-4-yl)pyrazine-2-carboxamide] |
| – | 0.2 nM | Cc1cc(C(C)n2cc(NC(=O)c3nc(-c4c(C(F)F)ccc(Cl)c4F)cnc3CO)cn2)cnc1N1C[C@H]2C[C@H]2C1=O (single isomer, unassigned) [Example 200, 6-(3-Chloro-6-(difluoromethyl)-2-fluorophenyl)-3-(hydroxymethyl)-N-(1-((R or S)-1-(5-methyl-6-((1R,5S)-2-oxo-3-azabicyclo[3.1.0]hexan-3-yl)pyridin-3-yl)ethyl)-1H-pyrazol-4-yl)pyrazine-2-carboxamide] |
